Patent publication EP0885186B1, “AMINO ACID DERIVATIVES, PHARMACEUTICAL COMPOSITIONS CONTAINING THESE COMPOUNDS AND PROCESSES FOR PREPARING THEM” (Dr. Karl Thomae GmbH, priority 1995, dated 1997)

Key:
NPY-Y1 receptor = biological target: T1, NPY-Y1 receptor (Homo sapiens, UniProt P25929); assay: Studies of binding with SK-N-MC cells, displacement of [125I]-Bolton-Hunter-NPY; settings: inhibition of specific binding of [125I]-Bolton-Hunter-NPY, 3 hours at ambient temperature
T1 construct: endogenous in cells; host or cells: SK-N-MC cells (whole cells in suspension)
T1 sequence (P25929 1-384): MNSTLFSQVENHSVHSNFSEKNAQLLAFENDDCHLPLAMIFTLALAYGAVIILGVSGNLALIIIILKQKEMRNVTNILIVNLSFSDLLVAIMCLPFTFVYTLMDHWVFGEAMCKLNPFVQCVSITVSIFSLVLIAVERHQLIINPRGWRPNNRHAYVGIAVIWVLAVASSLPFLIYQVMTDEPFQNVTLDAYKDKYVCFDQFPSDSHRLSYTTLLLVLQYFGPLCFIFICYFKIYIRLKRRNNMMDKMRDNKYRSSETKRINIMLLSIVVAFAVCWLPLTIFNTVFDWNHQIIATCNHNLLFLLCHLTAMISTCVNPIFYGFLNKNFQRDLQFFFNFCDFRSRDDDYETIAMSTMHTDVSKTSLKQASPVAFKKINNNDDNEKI
Experimental: A. Studies of binding with SK-N-MC cells (expressing the human Y1-receptor)
The cells are detached using a mixture of 0.02% EDTA in PBS and resuspended in 10 ml of incubation medium (MEM/25 mM Hepes + 0.5% BSA, 50 µM PMSF, 0.1% bacitracin, 3.75 mM CaCl2) per 40 million cells approx. After 5 minutes' centrifuging (150 x g) the pellet is resuspended in the same volume and, after a further washing step in 10 ml of incubation medium, counted and diluted to 1.25 million cells/ml. Then 200 µl of a suspension of 1.25 million cells/ml is incubated for 3 hours at ambient temperature with 25 µl of a 300 pM solution of [^125I]-Bolton-Hunter-NPY and increasing concentrations (10^-11 to 10^-6 M) of the test substances, whilst maintaining a total volume of 250 µl. Incubation is ended by centrifuging (10 minutes at 3000 x g and 4°C). After washing once with PBS, the radioactivity of the pellet is measured in a gamma counter. The radioactivity thus obtained represents the sum of specific and non-specific binding of [^125I]-Bolton-Hunter-NPY. The proportion of non-specific binding is defined as that radioactivity which is bound in the presence of 1 µM NPY. The IC50 values of the unlabelled test substances are determined graphically. They represent the concentration of the test substance in question at which the specific binding of[^125I]-Bolton-Hunter-NPY to the NPY-Y1 receptor is inhibited by 50%.

NPY activity = assay: NPY-antagonism in vitro, isolated perfused rat kidney, NPY-induced perfusion pressure increase; set-up: species or system rats; settings: inhibition of pressure increase by NPY (1µM) bolus
Experimental: B. NPY-antagonism in vitro
Male rats (CHbb: THOM, 300 to 350 g) are given heparin (100 IU, i.v.) and the animals are then killed by a blow to the back of the neck. The abdomen is opened along the centre of the body and the left kidney is removed after the insertion of catheters in the renal artery, renal vein and ureter. The isolated kidney is immediately perfused with a modified Krebs-Ringer solution having the following composition (4 ml/minute):
A mixture of 95% O2/5% CO2 is passed through the solution which is kept at a temperature of 37°C. The perfusion pressure is measured continuously using a pressure gauge. After a 60 minute stabilisation period the perfusion rate is adjusted so as to obtain a perfusion pressure of approximately 100 mm Hg. After a further 30 minutes the experiment is started and NPY (1µM) is administered as a bolus (0.1 ml) at 15 minute intervals until the pressure increase observed reaches a constant value. The compounds to be tested are given in the form of a continuous infusion over a period of 5 minutes and then NPY is injected. After a 30 minute wash-out period the next highest concentration of test substance is investigated. 3 to 5 different concentrations of the particular compound are tested on each occasion. […]

[1] = system: NPY-induced blood pressure effects; assay: In vivo NPY-antagonism, pithed rats, NPY-induced increase in diastolic blood pressure; settings: test substance injected 1 min before NPY 10 µg/kg i.v.
Experimental: C. In vivo NPY-antagonism
Male rats of normal blood pressure (Chbb:THOM, 300 to 350 g) are anaesthetised with sodium hexobarbital (150 mg/kg, i.p.). After intubation of the trachea the animals are pithed by introducing a blunt needle through the eye into the spinal bone marrow channel. The animals are ventilated with oxygen-rich ambient air using a respiratory pump (20 strokes/minute). A cannula is inserted in the left carotid artery and the arterial blood pressure is measured using a pressure gauge (Braun Melsungen Combitrans) connected to a recording device. For injection purposes a catheter is placed in the left jugular vein through which heparin is administered (200 IU/kg, i.v.). After the blood pressure has been stabilised, the animals are given 2 bolus injections of NPY (10 µg/kg, i.v.) at intervals of 15 minutes. The average increase in diastolic blood pressure is taken as the reference value (= 100%). The test substances are injected in increasing doses (4 to 6 doses) at intervals of 15 minutes. One minute after administration of the test substance, NPY is administered.
The antagonistic effect of the test substances is determined by plotting the percentage inhibition of the NPY-induced blood pressure effects against the logarithm of the concentration of active substance.

NPY-induced food intake = assay: Food intake in satiated rats after NPY application to the paraventricular nucleus; format: in vivo; settings: for Food intake following NPY application: 2 h intake, satiated rats; for % Inhibition of food intake: versus vehicle + NPY
Experimental: D. In vivo Studies in rats: Food intake in satiated rats
For these determinations food intake was measured in normal satiated rats after application of NPY to the paraventricular nucleus (PVN) in the presence or absence of the test compound. Male Chbb: Thom rats weighing between 300 and 350 g were used for all experiments. The rats were individually housed in stainless steel cages where water and food were available ad libitum.
Rats under Pentobarbital anaesthesia were stereotactically implanted with a stainless steel double guide cannula targeted bilaterally at the PVNs. Stereotactic coordinates were: -1.8mm caudal, 0.5mm lateral to bregma and 7.0mm below the skull surface. Injection cannulae extended the guide cannulae by 1 mm. Animals were allowed to recover from surgery for at least 10 days before being used in the experiments. Rats were handled and mock-injected during the one-week recovery period to habituate them to the injection procedure.
Animals treated with both test compounds and NPY were treated first with the test compound. Then, 15 min. after PVN infusion of the test compound or vehicle (control) 1 µg of NPY was administered by PVN infusion.
Food intake was measured by placing preweighed pellets into the cages at the time of NPY injection. Pellets were removed from the cage at 2 h post NPY injection. The food intake of animals treated with test compound was calculated as a percentage of the food intake of control animals, i.e., animals treated with vehicle.

food-deprived rats = assay: Food intake in food-deprived rats; format: in vivo; settings: 24 hour food deprived rats, 15 µg, bilaterally, into PVN
Experimental: Food intake in food-deprived rats
Food-deprivation experiments were conducted with male Chbb:Thom rats weighing between 300 and 350 g. The animals were individually housed for the duration of the study and allowed free access to normal food together with tap water. Food was removed from the animals for 24 hours starting at 8:00 a.m. At the end of the fasting period compound or vehicle was administered to the animals by infusion into the PVN. Food was returned to the animals and their food intake monitored at various time periods during the following 24 hour period. The food intake of animals treated with test compound was calculated as a percentage of the food intake of control animals (i.e., animals treated with vehicle).

CN(CCCC(NC(=O)C(c1ccccc1)c1ccccc1)C(=O)NCc1ccc(O)cc1)C(=N)N (racemic) [(B), (R,S)-N^5-(aminoiminomethyl)-N^2-(diphenylacetyl)-N-[(4-hydroxyphenyl)methyl]-N^5-methyl-ornithinamide]
IC50 (NPY-Y1 receptor): 0.62 nM
pIC50 (NPY activity): 8.41 mol/l
pID50 [1]: 7.87 mol/kg

N=C(N)NCCC[C@@H](NC(=O)C(c1ccccc1)c1ccccc1)C(=O)NCc1ccc(CNC(N)=O)cc1 [(A), (R)-N-[[4-(aminocarbonylaminomethyl)phenyl]methyl]-N^2-(diphenylacetyl)-argininamide]
pIC50 (NPY activity): 8.12 mol/l
pID50 [1]: 8.11 mol/kg
Food intake following NPY application (NPY-induced food intake; 15 µg of compound by PVN infusion 15 min before 1 µg NPY): 2.62 g/animal
% Inhibition of food intake (NPY-induced food intake; 15 µg of compound by PVN infusion): 25.9%
Food intake following NPY application (NPY-induced food intake; 30 µg of compound by PVN infusion 15 min before 1 µg NPY): 1.67 g/animal
% Inhibition of food intake (NPY-induced food intake; 30 µg of compound by PVN infusion): 52.8%
Food intake following NPY application (NPY-induced food intake; 60 µg of compound by PVN infusion 15 min before 1 µg NPY): 1.07 g/animal
% Inhibition of food intake (NPY-induced food intake; 60 µg of compound by PVN infusion): 69.8%
duration of significant reduction in food intake (food-deprived rats): at least 4 h

N=C(N)NCCC[C@@H](NC(=O)C(c1ccccc1)c1ccccc1)C(=O)NCc1ccc(CC(N)=O)cc1 [(C), (R)-N-[[4-(aminocarbonylmethyl)phenyl]methyl]-N^2-(diphenylacetyl)-argininamide]
IC50 (NPY-Y1 receptor): 0.63 nM

CCNC(=O)NCc1ccc(CNC(=O)[C@@H](CCCNC(=N)N)NC(=O)C(c2ccccc2)c2ccccc2)cc1 [(D), (R)-N^2-(diphenylacetyl)-N-[[4-(ethylaminocarbonylamino-methyl)phenyl]methyl]-argininamide]
IC50 (NPY-Y1 receptor): 0.75 nM

CCOC(=O)CNC(=O)NCc1ccc(CNC(=O)[C@@H](CCCNC(=N)N)NC(=O)C(c2ccccc2)c2ccccc2)cc1 [(E), (R)-N^2-(diphenylacetyl)-N-[[4-(ethoxycarbonylmethylamino-carbonylaminomethyl)-phenyl)methyl]-argininamide]
IC50 (NPY-Y1 receptor): 0.4 nM

N=C(N)NCCC[C@@H](NC(=O)C(c1ccc(Cl)cc1)c1ccc(Cl)cc1)C(=O)NCc1ccc(CNC(N)=O)cc1 [(F), (R)-N-[[4-(aminocarbonylaminomethyl)phenyl]methyl]-N^2-[bis-(4-chlorophenyl)-acetyl]-argininamide]
IC50 (NPY-Y1 receptor): 0.35 nM

N=C(N)NCCC[C@@H](NC(=O)C(c1ccc(O)cc1)c1ccc(O)cc1)C(=O)NCc1ccc(CNC(N)=O)cc1 [(G), (R)-N-[[4-(aminocarbonylaminomethyl)phenyl]methyl]-N^2-[bis-(4-hydroxyphenyl)-acetyl]-argininamide]
IC50 (NPY-Y1 receptor): 0.17 nM

NPY: NPY, agonist applied to the paraventricular nucleus (1 µg) to elicit feeding response in satiated rats
two hour food intake (NPY-induced food intake; NPY 1µg into PVN, 0.5 g in animals injected with vehicle): 3.5 g
